These results are taken from patent US8945594B2, “Vinylic mask with peel-off effect for topical use containing high concentrations of retinoic acid” (Laboratori Farmaceutici Krymi S.p.A., priority 2010, dated 2015).

The conditions of data set [1]: cited from earlier work.
A short description of data set [2]: Ex vivo determination of skin-accumulated amount of tretinoin contained in the polyvinylic mask. In kind it is in vitro ADME, human. The settings on record: polyvinylic mask 2.5% Trans-Retinoic acid Lot P10044, n = 3, average ± s.d. As for the experimental part:
Assessing the Absence of Skin Permeation of Retinoic Acid During the Application Period by Ex Vivo Determination of Skin-Accumulated Amount of the Tretinoin Contained in the Polyvinylic Mask
An ex vivo study of the skin-accumulated amount of retinoic acid contained in the polyvinylic mask was conducted at the Department of Pharmaceutical Sciences of the University of Milan. The aim of the work was the assessment of the barrier effect by polyvinyl alcohol toward the percutaneous absorption of Trans-Retinoic acid under standard conditions of use of the mask. A sample of polyvinylic mask containing 2.5% Trans-Retinoic acid (Lot n° P10044) was subjected to the test. The membrane was prepared by using skin of human origin, which is the most appropriate for foreseeing in vivo absorption. As it is known that the skin barrier against permeation of exogenous substances by passive diffusion mainly consists of the corneal layer, absorption was assessed by using as membrane the […] (SCE) obtained by mechanical separation of the derm from the skin.
The difference in the amounts of tretinoin accumulated in the membranes over the two exposure times, reported in the following table 1, is not significant; therefore, it is evident how the barrier formed by polyvinyl alcohol interferes, by inhibiting percutaneous absorption of Trans-Retinoic acid and therefore its undesired systemic effects, which instead are present in products lacking said barrier and containing it.

Take `CC1=C(/C=C/C(C)=C/C=C/C(C)=C/C(=O)O)C(C)(C)CCC1` [Tretinoin, retinoic acid]: in data set [1], the solubility in dichloromethane entry is “soluble in dichloromethane”, the solubility in ethanol result is on record as “scarcely soluble in ethanol”, the solubility in ether entry is listed as “moderately soluble in ether” and the solubility in water result is listed as “practically insoluble in water”. Further, in data set [2] (exposure time 30 min), the “Amount of SCE-accumulated tretinoin” value came out at 1.32 ± 1.01 μg/cm^2 and the “Amount of SCE-accumulated tretinoin, % w/w with respect to the amount applied” value came to 1.15 ± 0.84 % w/w. Moreover, in data set [2] (exposure time 60 min), the “Amount of SCE-accumulated tretinoin” value turned out to be 1.63 ± 0.23 μg/cm^2 and the “Amount of SCE-accumulated tretinoin, % w/w with respect to the amount applied” value was 1.38 ± 0.12 % w/w.
